According to ChEMBL document CHEMBL1201862, “PubChem BioAssay data set” (2004):
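Compound exposure: 48 hours, 5 concentrations, 96-well plates. GI50 is the concentration that inhibits growth by half.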 The source made the active and inactive calls. No stated cut-off is given here; in the data, active = GI50 up to about 1.1 µM and inactive = higher.

What was measured:
Test in all cases: NCI tumour cell line growth inhibition, 48 h
[1] = system: Hs-578T
[2] = system: NCI/ADR-RES
[3] = system: OVCAR-4
[4] = system: NCI-H522
[5] = system: CAKI-1
[6] = system: CCRF-CEM
[7] = system: EKVX
[8] = system: RXF 393
[9] = system: LOX IMVI
[10] = system: HL-60
[11] = system: SR
[12] = system: UACC-257
[13] = system: HCT-15
[14] = system: MDA-MB-231
[15] = system: KM12
[16] = system: UO-31
[17] = system: T47D
[18] = system: UACC-62
[19] = system: BT-549
[20] = system: SNB-75

| SMILES | GI50 [1] | GI50 [2] | GI50 [3] | GI50 [4] | GI50 [5] | GI50 [6] | GI50 [7] | GI50 [8] | GI50 [9] | GI50 [10] | GI50 [11] | GI50 [12] | GI50 [13] [µM] | GI50 [14] | GI50 [15] | GI50 [16] | GI50 [17] | GI50 [18] | GI50 [19] | GI50 [20] |
| --- | --- | --- | --- | --- | --- | --- | --- | --- | --- | --- | --- | --- | --- | --- | --- | --- | --- | --- | --- | --- |
| O=C(NC(Nc1ccc(F)c(Cl)c1)(C(F)(F)F)C(F)(F)F)C(C(F)(F)F)C(F)(F)F | 17.6 µM (inactive) | 19.8 µM (inactive) | 29 µM (inactive) | 16.8 µM (inactive) | 32.4 µM (inactive) | 22.1 µM (inactive) | 68.4 µM (inactive) | 23.2 µM (inactive) | 12 µM (inactive) | 15.6 µM (inactive) | 28.2 µM (inactive) | 32.7 µM (inactive) | 18.1 | 28.3 µM (inactive) | 17.9 µM (inactive) | 19.5 µM (inactive) | 44.3 µM (inactive) | – | – | – |
| COc1cccc(NC(=O)c2c(SC)c(C#N)c(=O)n(N)c2N)c1 | 41.1 µM (inactive) | 43 µM (inactive) | 40.9 µM (inactive) | 42.3 µM (inactive) | > 100 µM (inactive) | 35.2 µM (inactive) | > 100 µM (inactive) | > 100 µM (inactive) | 88.1 µM (inactive) | – | – | > 100 µM (inactive) | 66.2 | 95.7 µM (inactive) | > 100 µM (inactive) | – | – | 61.5 µM (inactive) | 61.8 µM (inactive) | 1.46 µM (inactive) |
| Cc1ccc(S(=O)(=O)Nn2c(S)c(C#N)c(-c3ccc(N(C)C)cc3)c(C#N)c2=O)cc1 | – | 32 µM (inactive) | 17.1 µM (inactive) | 14.5 µM (inactive) | > 100 µM (inactive) | 5.57 µM (inactive) | 23.6 µM (inactive) | 19.3 µM (inactive) | 22.1 µM (inactive) | 20.7 µM (inactive) | 23.7 µM (inactive) | 51.4 µM (inactive) | 20.3 | > 100 µM (inactive) | 24.6 µM (inactive) | 16.9 µM (inactive) | – | 25.7 µM (inactive) | 22.2 µM (inactive) | 35.2 µM (inactive) |
| CN(C)CCNc1ccc([N+](=O)[O-])c2nc3ccccc3c(N)c12 | 3.96 µM (inactive) | 0.569 µM (active) | 0.74 µM (active) | – | 1.84 µM (inactive) | 0.241 µM (active) | 0.607 µM (active) | 1.05 µM (active) | 0.375 µM (active) | 0.741 µM (active) | 0.282 µM (active) | 2.18 µM (inactive) | 0.444 | 0.695 µM (active) | 0.381 µM (active) | 0.757 µM (active) | 0.48 µM (active) | 1.15 µM (inactive) | – | 0.841 µM (active) |
| O=C(c1ccccc1F)c1c(NCc2ccccc2)c(=O)c1=O | > 100 µM (inactive) | > 100 µM (inactive) | > 100 µM (inactive) | 19.9 µM (inactive) | > 100 µM (inactive) | > 100 µM (inactive) | > 100 µM (inactive) | > 100 µM (inactive) | > 100 µM (inactive) | > 100 µM (inactive) | – | > 100 µM (inactive) | > 100 | > 100 µM (inactive) | > 100 µM (inactive) | > 100 µM (inactive) | – | > 100 µM (inactive) | > 100 µM (inactive) | > 100 µM (inactive) |
| CC(C)CC(NC(=O)C(CSc1ccc([N+](=O)[O-])cc1)Cc1ccccc1)C(=O)Nc1ccccc1 (stereo unspecified) | – | 30.2 µM (inactive) | 35.1 µM (inactive) | 64.9 µM (inactive) | 72.1 µM (inactive) | 33.1 µM (inactive) | > 100 µM (inactive) | > 100 µM (inactive) | > 100 µM (inactive) | 40.9 µM (inactive) | > 100 µM (inactive) | > 100 µM (inactive) | > 100 | > 100 µM (inactive) | 41.4 µM (inactive) | 43.1 µM (inactive) | – | > 100 µM (inactive) | 12.3 µM (inactive) | 26.4 µM (inactive) |
| Clc1ccc(Nc2nnc(CNc3ccc(-c4nnc(Nc5ccc(Cl)cc5)s4)cc3)s2)cc1 | – | 48.4 µM (inactive) | 27.5 µM (inactive) | 12.8 µM (inactive) | 42.6 µM (inactive) | – | 49.1 µM (inactive) | 35.8 µM (inactive) | – | – | – | 34 µM (inactive) | 25.1 | 25.8 µM (inactive) | 11 µM (inactive) | 4.68 µM (inactive) | – | 21.2 µM (inactive) | 71.9 µM (inactive) | > 100 µM (inactive) |
| O=C(/C=C(\C(=O)c1cccs1)c1cccs1)c1ccc(C(=O)/C=C(\C(=O)c2cccs2)c2cccs2)cc1 | > 100 µM (inactive) | > 100 µM (inactive) | > 100 µM (inactive) | – | > 100 µM (inactive) | > 100 µM (inactive) | > 100 µM (inactive) | > 100 µM (inactive) | – | > 100 µM (inactive) | > 100 µM (inactive) | > 100 µM (inactive) | > 100 | > 100 µM (inactive) | > 100 µM (inactive) | > 100 µM (inactive) | > 100 µM (inactive) | > 100 µM (inactive) | – | > 100 µM (inactive) |
| CC1(C)O[C@@H](CP(c2cccc3ccccc23)c2cccc3ccccc23)[C@H](CP(c2cccc3ccccc23)c2cccc3ccccc23)O1 | – | > 100 µM (inactive) | > 100 µM (inactive) | > 100 µM (inactive) | > 100 µM (inactive) | > 100 µM (inactive) | > 100 µM (inactive) | > 100 µM (inactive) | > 100 µM (inactive) | – | > 100 µM (inactive) | > 100 µM (inactive) | > 100 | > 100 µM (inactive) | > 100 µM (inactive) | > 100 µM (inactive) | > 100 µM (inactive) | > 100 µM (inactive) | > 100 µM (inactive) | > 100 µM (inactive) |
| CN(C)C1(N(C)C)Oc2c(c(=O)n(C)c(=O)n2C)C(c2ccc(F)cc2)C1(F)F (stereo unspecified) | – | > 100 µM (inactive) | > 100 µM (inactive) | – | > 100 µM (inactive) | > 100 µM (inactive) | > 100 µM (inactive) | > 100 µM (inactive) | > 100 µM (inactive) | – | – | > 100 µM (inactive) | > 100 | > 100 µM (inactive) | > 100 µM (inactive) | > 100 µM (inactive) | > 100 µM (inactive) | > 100 µM (inactive) | > 100 µM (inactive) | > 100 µM (inactive) |
| O=CCC1CCCCC1 | – | > 100 µM (inactive) | > 100 µM (inactive) | > 100 µM (inactive) | > 100 µM (inactive) | – | > 100 µM (inactive) | > 100 µM (inactive) | > 100 µM (inactive) | – | – | > 100 µM (inactive) | > 100 | > 100 µM (inactive) | 88.7 µM (inactive) | > 100 µM (inactive) | > 100 µM (inactive) | – | > 100 µM (inactive) | > 100 µM (inactive) |
| CCN(CC)CC(C)(C)C(=O)/C=C/c1ccc(/C=C/C(=O)C(C)(C)CN(CC)CC)cc1 | 0.462 µM (active) | 1.09 µM (active) | – | 0.104 µM (active) | 0.733 µM (active) | 0.0646 µM (active) | 1.63 µM (inactive) | 0.233 µM (active) | 0.263 µM (active) | 0.0499 µM (active) | 0.0893 µM (active) | 1.62 µM (inactive) | 0.325 | 0.206 µM (active) | 0.879 µM (active) | 1.8 µM (inactive) | 0.587 µM (active) | 1.46 µM (inactive) | – | 1.61 µM (inactive) |
| CN(C)C(n1cc2c(c1)-c1ccc(Cl)cc1C(c1ccccc1F)=NC2)n1cc2c(c1)-c1ccc(Cl)cc1C(c1ccccc1F)=NC2 | > 100 µM (inactive) | > 100 µM (inactive) | > 100 µM (inactive) | 81.8 µM (inactive) | > 100 µM (inactive) | > 100 µM (inactive) | > 100 µM (inactive) | 20.2 µM (inactive) | 12 µM (inactive) | 51.3 µM (inactive) | > 100 µM (inactive) | > 100 µM (inactive) | > 100 | > 100 µM (inactive) | – | 97.3 µM (inactive) | 38.4 µM (inactive) | > 100 µM (inactive) | – | 24.7 µM (inactive) |
| CC(=O)O[C@@]12CO[C@@H]1C[C@H](O)[C@@]1(C)C(=O)[C@H](O)C3=C(C)[C@@H](OC(=O)[C@H](O)[C@@H](NC(=O)OC(C)(C)C)c4ccccc4)C[C@@](O)([C@@H](OC(=O)c4ccccc4)[C@H]21)C3(C)C [DOCETAXEL] | 0.00104 µM (active) | – | 21.8 µM (inactive) | < 0.01 µM (active) | 0.0417 µM (active) | < 0.01 µM (active) | 3.72 µM (inactive) | 0.242 µM (active) | < 0.0585 µM (active) | < 0.0631 µM (active) | < 0.01 µM (active) | 0.455 µM (active) | 0.0493 | 0.0216 µM (active) | < 0.01 µM (active) | 0.885 µM (active) | – | < 0.01 µM (active) | 0.00342 µM (active) | < 0.01 µM (active) |
| CCN(C(=S)N[C@@H](Cc1ccccc1)C(=O)N[C@@H](CC(C)C)C(=O)OC)c1ccccc1 | – | > 100 µM (inactive) | > 100 µM (inactive) | 55.6 µM (inactive) | > 100 µM (inactive) | 33.5 µM (inactive) | > 100 µM (inactive) | > 100 µM (inactive) | > 100 µM (inactive) | – | 24 µM (inactive) | > 100 µM (inactive) | 49 | > 100 µM (inactive) | 50.9 µM (inactive) | > 100 µM (inactive) | > 100 µM (inactive) | > 100 µM (inactive) | 69 µM (inactive) | > 100 µM (inactive) |
| CC(C)(C)OC(=O)NC(Cc1ccccc1)NC(=O)NC(=O)OCc1ccccc1 (stereo unspecified) | 44 µM (inactive) | 55.7 µM (inactive) | – | 15.6 µM (inactive) | 24 µM (inactive) | – | > 100 µM (inactive) | 22 µM (inactive) | – | – | > 100 µM (inactive) | 81.3 µM (inactive) | > 100 | – | 59.8 µM (inactive) | > 100 µM (inactive) | – | 25.3 µM (inactive) | 54.5 µM (inactive) | 32.8 µM (inactive) |
